The structures appear in SMILES notation. Converted amounts (≈) assume the structure as drawn. Bounds are passed on as bounds.

In general, MIC refers to the lowest concentration that inhibits growth of the organism.

Assay type in all cases: cell-based
Test [1] deals with Bifidobacterium longum subsp. infantis. The experiment in a line: Minimum Inhibitory Concentration (MIC) assay. Particulars: anaerobic, 37° C., 18 h. As for the experimental part: (§1) The bioactivity of macrolide compounds against 4 strains of common gut bacteria (Escherichia coli, Streptococcus salivarius subsp. salivarius, Lactobacillus casei and Bifidobacterium longum subsp. infantis) and common mammalian skin isolate Micrococcus luteus, was assessed using the Minimum Inhibitory Concentration (MIC) assay. Bacterial strains were purchased from DSMZ (Brunswick, Germany) except M. luteus which was obtained from NCIMB, and stored in 20% glycerol at −80° C. Stock solutions (100% DMSO) of positive controls (azithromycin and erythromycin), and of test compounds 1 and 2 were diluted in broth to working stock concentrations of 256 μg/ml (final assay testing concentration range 128 μg/ml to 0.00391 μg/ml). Stock solutions of all other compounds were diluted in broth to working stock concentrations of 128 μg/ml (final assay testing concentration range 64 μg/ml to 0.00195 μg/ml). Bacterial strains were cultivated in appropriate broth in an anaerobic chamber at 37° C., except for M. luteus which was incubated aerobically at 37° C. 18 h cultures were diluted in broth to an OD595 of 0.1 and then further diluted 1:10. In 96-well plates, in duplicate, 200 μl working stock of test compound was transferred to well 1 and serially diluted (1:2) in broth. 100 μl bacterial suspension was aliquoted into each well and mixed thoroughly. Appropriate sterility controls were included and plates were incubated in an anaerobic chamber, or aerobically (M. luteus) at 37° C. for 18 h. The MIC was determined to be the concentration of test compound in the first well with no visible growth.

For another test, the system named is Escherichia coli. Description: Minimum Inhibitory Concentration (MIC) assay. Particulars: anaerobic, 37° C., 18 h. As for the experimental part: as §1
The next test has as its system Lactobacillus casei. Description: Minimum Inhibitory Concentration (MIC) assay. As to conditions: Lacticaseibacillus casei; anaerobic, 37° C., 18 h. Here is the method:
as §1

For test [2], the system named is Streptococcus salivarius subsp. salivarius. The experiment in a line: Minimum Inhibitory Concentration (MIC) assay. Particulars: anaerobic, 37° C., 18 h. As for the experimental part: as §1
The test system of test [3] is E. coli, S. salivarius, L. casei, B. longum or M. luteus. The experiment in a line: Direct antibacterial activity, summary over all strains tested. As to conditions: summary in words of Table 1. As for the experimental part:
as §1

A further test relates to Micrococcus luteus. The experiment in a line: Minimum Inhibitory Concentration (MIC) assay. Particulars: aerobic, 37° C., 18 h. As for the experimental part: as §1
A further test has as its target T1, human TLR2 (Homo sapiens, UniProt O60603).
T1 construct: host or cells: recombinant HEK-293-TLR cell lines
The experiment in a line: TLR2 reporter assay (HEK-293-TLR, SEAP). As to conditions: for TLR2 stimulation: at concentrations up to 20 uM. Here is the method:
Samples and controls were tested in duplicate on recombinant HEK-293-TLR cell lines using a cell reporter assay at Invivogen using their standard assay conditions. These cell lines functionally over-express human TLR2 protein as well as a reporter gene which is a secreted alkaline phosphatase (SEAP). The production of this reporter gene is driven by an NFkB inducible promoter. The TLR reporter cell lines activation results are given as optical density values (OD).
20 μl of each test article were used to stimulate the hTLR2 reporter cell lines in a 200 μl of final reaction volume. Samples were tested in duplicate, with at least two concentrations tested—20 uM and 10 uM.
Compounds were tested using a TLR2 reporter assay (see general methods) that measured for stimulation of the TLR2 receptor. Stimulatory effect was measured as an increase in optical density (OD) due to release of secreted alkaline phosphatase (SEAP) and is shown in table 4: […]
(In general: Reporter assays use an easily measured gene product as a stand-in for the process of interest.)

T1 sequence (O60603 21-784): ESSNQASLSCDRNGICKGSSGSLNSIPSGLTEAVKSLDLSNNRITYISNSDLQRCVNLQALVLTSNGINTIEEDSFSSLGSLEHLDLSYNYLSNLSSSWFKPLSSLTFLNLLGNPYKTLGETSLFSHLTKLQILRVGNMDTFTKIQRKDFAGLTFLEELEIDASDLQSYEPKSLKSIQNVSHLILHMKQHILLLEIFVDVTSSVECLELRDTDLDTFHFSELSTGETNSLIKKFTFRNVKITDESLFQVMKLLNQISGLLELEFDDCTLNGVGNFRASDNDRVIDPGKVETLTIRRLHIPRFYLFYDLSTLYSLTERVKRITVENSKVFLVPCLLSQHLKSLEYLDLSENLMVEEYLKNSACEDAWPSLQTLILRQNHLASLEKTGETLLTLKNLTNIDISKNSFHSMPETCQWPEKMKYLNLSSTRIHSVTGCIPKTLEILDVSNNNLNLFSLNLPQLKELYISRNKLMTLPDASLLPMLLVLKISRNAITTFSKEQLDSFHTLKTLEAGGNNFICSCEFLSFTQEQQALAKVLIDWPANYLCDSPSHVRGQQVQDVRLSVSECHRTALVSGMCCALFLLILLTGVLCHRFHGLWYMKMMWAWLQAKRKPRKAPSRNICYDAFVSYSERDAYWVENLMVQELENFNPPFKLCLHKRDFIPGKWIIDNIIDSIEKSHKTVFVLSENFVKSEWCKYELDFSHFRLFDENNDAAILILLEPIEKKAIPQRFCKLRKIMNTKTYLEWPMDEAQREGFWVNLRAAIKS

Consider `CC1O[C@@H](O[C@H]2[C@H](C)[C@@H](O)[C@](C)(O)C[C@@H](C)C(=O)[C@H](C)[C@@H](O)[C@@H](C)[C@@H](C3CCC3)OC(=O)[C@@H]2C)CC(N(C)C)[C@@H]1O` (stereo partly drawn) [Compound 5], for which the MIC (in test [1]; with Escherichia coli; against Lactobacillus casei; in test [2]) was more than 64 µg/mL each time. The “antibacterial activity against the bacterial strains tested” value (shortened to “antibacterial activity”) in test [3] is listed as “no antibacterial activity”.

On to `CC[C@H]1OC(=O)[C@H](C)[C@@H](O[C@H]2CC(NC)[C@H](O)C(C)O2)[C@H](C)[C@@H](O)[C@](C)(O)C[C@@H](C)C(=O)[C@H](C)[C@@H](O)[C@H]1C` (stereo partly drawn) [Compound 6], for which the MIC (in test [1]; against Escherichia coli; against Lactobacillus casei; in test [2]) was more than 64 µg/mL throughout. Also, the “antibacterial activity” value in test [3] is “no antibacterial activity”.

With `CC1O[C@@H](O[C@H]2[C@H](C)[C@@H](O)[C@](C)(O)C[C@@H](C)C(=O)[C@H](C)[C@@H](O)[C@@H](C)[C@@H](C)OC(=O)[C@@H]2C)CC(N(C)C)[C@@H]1O` (stereo partly drawn) [Compound 8], the MIC (in test [1]; in the test on Escherichia coli; in the test on Lactobacillus casei; in test [2]) was more than 64 µg/mL in each case. Besides, the “antibacterial activity” value in test [3] is “no antibacterial activity”.

Turning to `CC[C@H]1OC(=O)[C@H](C)[C@@H](O[C@H]2CC(N(C)C)[C@H](O)C(C)O2)[C@H](C)[C@@H](O)[C@](C)(O)C[C@@H](C)CN(C)[C@H](C)[C@@H](O)[C@H]1C` (stereo partly drawn) [Compound 4], the MIC (in test [1]; in the test on Escherichia coli; against Lactobacillus casei; in test [2]) was more than 64 µg/mL each time. Besides, the “antibacterial activity” value in test [3] was “no antibacterial activity”.

On to `CC[C@H]1OC(=O)[C@H](C)[C@@H](O[C@H]2C[C@@](C)(OC)[C@@H](O)[C@H](C)O2)[C@H](C)[C@@H](O[C@@H]2O[C@H](C)C[C@H](N(C)C)[C@H]2O)[C@](C)(O)C[C@@H](C)CN(C)[C@H](C)[C@@H](O)[C@]1(C)O` [Azithromycin, reference compound], for which the MIC is more than 64 µg/mL in test [1]; less than 8 µg/mL in the test on Escherichia coli; less than 1 µg/mL in the test with Lactobacillus casei; 0.125 µg/mL (≈ 0.167 µM) in the test with Micrococcus luteus; less than 0.5 µg/mL in test [2]. The “antibacterial activity” value in test [3] is recorded as “potent activity against a number of the strains”. For the same compound, the “OD after addition of 5 μM test article” value at human TLR2 was 0.029 OD. Also, at human TLR2, the “OD after addition of 10 μM test article” value amounted to 0.045 OD. Further, the “OD after addition of 20 μM test article” value at human TLR2 came to 0.031 OD. In addition, on human TLR2, the TLR2 stimulation entry is given as “little or no stimulation”.

Consider `CC[C@H]1OC(=O)[C@H](C)[C@@H](O[C@H]2CC(N(C)C)[C@H](O)C(C)O2)[C@H](C)[C@@H](O)[C@](C)(O)C[C@@H](C)C(=O)[C@H](C)[C@@H](O)[C@H]1C` (stereo partly drawn) [Compound 3], for which the “antibacterial activity” value in test [3] was “no antibacterial activity”. Moreover, at human TLR2, the “OD after addition of 5 μM test article” value is reported as −0.043 OD, the “OD after addition of 10 μM test article” value is −0.015 OD, the “OD after addition of 20 μM test article” value was −0.026 OD and the TLR2 stimulation result is listed as “little or no stimulation”.

For the compound `CC(O)[C@H]1OC(=O)[C@H](C)[C@@H](O[C@H]2C[C@@H](N(C)C)[C@H](O)[C@@H](C)O2)[C@H](C)[C@@H](O)[C@](C)(O)C[C@@H](C)C(=O)[C@H](C)[C@@H](O)[C@H]1C` (stereo partly drawn) [Compound 9, 14-hydroxy angolosamine erythronolide B], the MIC (in test [1]; against Escherichia coli; with Lactobacillus casei; in test [2]) was more than 64 µg/mL in each case. Also, in test [3], the “antibacterial activity” value is “no antibacterial activity”.

As for `CC[C@H]1OC(=O)[C@H](C)[C@@H](O[C@H]2C[C@@](C)(OC)[C@@H](O)[C@H](C)O2)[C@H](C)[C@@H](O[C@@H]2O[C@H](C)C[C@H](N(C)C)[C@H]2O)[C@](C)(O)C[C@@H](C)C(=O)[C@H](C)[C@@H](O)[C@]1(C)O` [Erythromycin, reference compound], the MIC in test [1] is more than 64 µg/mL; with Escherichia coli it was more than 64 µg/mL; against Lactobacillus casei it was less than 0.25 µg/mL; against Micrococcus luteus, less than 0.0625 µg/mL; in test [2], less than 0.06 µg/mL. Besides, the “antibacterial activity” value in test [3] is listed as “potent activity against a number of the strains”. Further, on human TLR2, the “OD after addition of 5 μM test article” value is recorded as 0.035 OD. Also, on human TLR2, the “OD after addition of 10 μM test article” value amounted to 0.065 OD. Further, at human TLR2, the “OD after addition of 20 μM test article” value is 0.045 OD. Moreover, the TLR2 stimulation entry at human TLR2 is “little or no stimulation”.

As for `CC[C@H]1OC(=O)[C@H](C)[C@@H](O[C@H]2CC(N(C)C)[C@H](O)C(C)O2)[C@H](C)[C@@H](O)[C@](C)(O)C[C@@H](C)N(C)C[C@H](C)[C@@H](O)[C@]1(C)O` (stereo partly drawn) [Compound 17], on human TLR2, the “lowest concentration at which TLR2 was stimulated (concentrations down to)” value came to 10 µM, the “OD after addition of 5 μM test article” value was 0.054 OD, the “OD after addition of 10 μM test article” value was 0.155 OD and the “OD after addition of 20 μM test article” value came out at 0.234 OD.

Source of the values: patent US11059844B2, “Immune stimulating macrolides” (ISR IMMUNE SYSTEM REGULATION HOLDING AB (PUBL), priority 2017, dated 2021).
